Measurements published in patent US6197535A, “Methods for purifying and assaying a conus γ-carboxylase” (University of Utah Research Foundation, priority 1999, dated 2001).

Test system: Conus γ-glutamyl carboxylase (Conus radiatus venom duct microsomes)
Format: biochemical
Conditions: for Km: read-out: apparent Km

Substance	Km [mM]	enhancement of carboxylation of E.Con-G	enhancement of carboxylation of FLEEL [%]	inhibition of carboxylation of -10.Pro-E.Con-G	IC50 (read-out: apparent IC50) [µM]
GEEELQENQELIREKSN-NH2 [E.Con-G]	3.4	–	–	–	–
GKDRLTQMKRILKQRGNKAR [Pro (-20 to -1)]	–	~ 25%	40	is an inhibitor	490
GKDRLTQMKRILKQRGNKAR-GEEELY-NH2 [wild type substrate]	0.04	–	–	–	–
